Experimental data taken from article PMC4127532 (Journal of Medicinal Chemistry, 2014).
“Also recorded” adds a separate entry of the source.

Legend:
[1] = biological target: A/England/195/2009 (H1N1), M2/S31 (Influenza A virus, UniProt C3W5Z0, N31S); assay type: cell-based
[2] = system: A/Victoria/3/75 (H3N2, M2 WT); assay: microbe, parasite or virus in culture; assay type: cell-based, influenza A
[3] = biological target: S31N M2 transmembrane domain (residues 22–46) (Influenza A virus, UniProt P0DOF5, S31N); assay type: binding, influenza A (A/Udorn/307/72)

| SMILES | block of inward proton currents (in words) [1] | EC50 ± SE [2] | EC50 ([2]; Influenza A virus, H3N2, MDCK) [nM] | decrease of tilt angle of the entire TMD helix [3] [°] | helix tilt of S31N M2 TMD with drug [3] [°] |
| --- | --- | --- | --- | --- | --- |
| NC12CC3CC(CC(C3)C1)C2 [Compound 1, amantadine] | well blocked | no detectable activity; also recorded: inactive | 3000 ± 500 | – | – |
| NC1C2CC3CC(C2)CC1C3 (stereo not shown) [Compound 3] | well blocked | – | – | – | – |
| CCCC1(N)C2CC3CC(C2)CC1C3 (stereo not shown) [Compound 6, 2-n-Propyltricyclo[3.3.1.1^3,7]decan-2-amine] | well blocked | – | – | 3 | ~33 |
